Test results taken from patent US20030181374A1, “Methods and compositions for stimulating bone growth using inhibitors of microtubule assembly” (priority 2002, published 2003).
Marks after values point to notes of the source that are not given here. Where a SMILES comes first, the peptide text is derived from it. The star is where a group is joined. Cbz = O=C(OCc1ccccc1)*; OtBu = CC(C)(C)O*

Assays:
[1] = system: Calvariae of one-month-old ICR Swiss mice; assay: New bone formation on calvariae (new bone width by histomorphometry); assay type: in vivo; settings: x2d, mean ± SE, n=5
Protocol: (§1) Male ICR Swiss white mice, aged 4-6 weeks and weighing 13-26 gm, are employed, using 4-5 mice per group. The calvarial bone growth assay is performed as described in PCT application WO95/24211, incorporated by reference. Briefly, the test compound or appropriate control vehicle is injected into the subcutaneous tissue over the right calvaria of normal mice. Typically, the control vehicle is the vehicle in which the compound was solubilized, and is PBS containing 5% DMSO or is PBS containing Tween (2 μl/10 ml). The animals are sacrificed on day 14 and bone growth measured by histomorphometry. Bone samples for quantitation are cleaned from adjacent tissues and fixed in 10% buffered formalin for 24-48 hours, decalcified in 14% EDTA for 1-3 weeks, processed through graded alcohols; and embedded in paraffin wax. Three to five μm sections of the calvaria are prepared, and representative sections are selected for histomorphometric assessment of the effects on bone formation and bone resorption. Sections are measured by using a camera lucida attachment to trace directly the microscopic image onto a digitizing plate. Bone changes are measured on sections cut 200 μm apart, over 4 adjacent 1×1 mm fields on both the injected and noninjected sides of the calvaria. New bone is identified by its characteristic woven structure, and osteoclasts and osteoblasts are identified by their distinctive morphology. Histomorphometry software (OsteoMeasure, Osteometrix, Inc., Atlanta) is used to process digitizer input to determine cell counts and measure areas or perimeters.
as §1, with “In more detail, male” for “Male”, “above.” for “in PCT application WO95/24211, incorporated by reference.”
Selected compounds and appropriate controls were assayed in vitro (ex vivo) for bone formation activity (described above in “Techniques for Neonatal Mouse Calvaria Assay (in vitro)). Histomorphometrical assessments of ex vivo calvaria were carried out using an OsteoMetrics bone morphometry measurement program, according to the manufacturer's instructions. Measurements were determined using either a 10- or 20-fold objective with a standard point counting eyepiece graticule.
New bone formation was determined (using a 10× objective) by measuring the new bone area formed in one field in 3 representative sections of each bone (4 bones per group). Each measurement was carried out ½ field distance from the end of the suture. Both total bone and old bone area were measured. Data were expressed as new bone width in mm.

[2] = system: ICR Swiss mice; assay: Bone volume and bone formation rates in ICR Swiss mice; assay type: in vivo; settings: n=10
Protocol: Briefly, test compound, positive control compound, PBS, or vehicle alone is administered subcutaneously once per day for 35 days. All animals are injected with calcein nine days and two days before sacrifice (two injections of calcein administered each designated day). Weekly body weights are determined. At the end of the 35-day cycle, the animals are weighed and bled by orbital or cardiac puncture. Serum calcium, phosphate, osteocalcin, and CBCs are determined. Both leg bones (femur and tibia) and lumbar vertebrae are removed, cleaned of adhering soft tissue, and stored in 70% ethanol for evaluation, as performed by peripheral quantitative computed tomography (pQCT; Ferretti, J., Bone (1995) 17:353S-64S), dual energy X-ray absorptiometry (DEXA; Laval-Jeantet A., et al., Calcif Tissue Intl (1995) 56:14-18; J. Casez, et al., Bone and Mineral (1994) 26:61-68) and/or histomorphometry. The effect of test compounds on bone remodeling can thus be evaluated.
Microtubule Inhibitor TN-16 Increases Bone Volume and Bone Formation Rates in ICR Swiss Mice.

[3] = system: mice; assay: In vivo assay for bone mineral density; settings: x2d, mean ± SE, n=10
[4] = system: BMP2 promoter-Luc; assay: High throughput screening: BMP2 promoter-luciferase reporter in 2T3-BMP-2-LUC osteoblast cells; assay type: cell-based, mouse; settings: 2T3 cells, mean ± SE, n=4
Description: 2, 1995, the entire contents of which are incorporated herein by reference. This assay is also described as a portion of a study of immortalized murine osteoblasts (derived from a mouse expressing a transgene composed of a BMP2 promoter driving expression of T-antigen) in Ghosh-Choudhery, N., et al., Endocrinology (1996) 137:331-39. In this study, the immortalized cells were stably transfected with a plasmid containing a luciferase reporter gene driven by a mouse BMP2 promoter (˜2736/114 bp), and responded in a dose-dependent manner to recombinant human BMP2.
Briefly, the assay utilizes cells transformed permanently or transiently with constructs in which the promoter of a bone morphogenetic protein, specifically BMP2 or BMP4, is coupled to a reporter gene, typically luciferase. These transformed cells are then evaluated for the production of the reporter gene product; compounds that activate the BMP promoter will drive production of the reporter protein, which can be readily assayed. Many thousands of compounds have been subjected to this rapid screening technique, and only a very small percentage are able to elicit a level of expression of reporter gene 5-fold greater than that produced by vehicle. […] The active compounds (“BMP promoter-active compounds” or “active compounds”) are useful in promoting bone or cartilage growth, and thus in the treatment of vertebrates in need of bone or cartilage growth.
In more detail, the 2T3-BMP-2-LUC cells, a stably transformed osteoblast cell line described in Ghosh-Choudhury et al. Endocrinology (1996) 137:331-39, referenced above, was employed. The cells were cultured using α-MEM, 10% FCS with 1% penicillin/streptomycin and 1% glutamine (“plating medium”), and were split 1:5 once per week. For the assay, the cells were resuspended in a plating medium containing 4% FCS, plated in microtiter plates at a concentration of 5×10^3 cells (in 50 μl)/well, and incubated for 24 hours at 37° C. in 5% CO2. To initiate the assay, 50 μl of the test compound or the control in DMSO was added at 2× concentration to each well, so that the final volume was 100 μl. The final serum concentration was 2% FCS, and the final DMSO concentration was 1%. Compound 59-0008 (10 μM) was used as a positive control.
The treated cells were incubated for 24 hours at 37° C. and 5% CO2. The medium was then removed, and the cells were rinsed three times with PBS. After removal of excess PBS, 25 μl of 1× cell culture lysing reagent (Promega #E153A) was added to each well and incubated for at least ten minutes. Optionally, the plates/samples could be frozen at this point. To each well was added 50 μl of luciferase substrate (Promega #E152A; 10 ml Promega luciferase assay buffer per 7 mg Promega luciferase assay substrate). Luminescence was measured on an automated 96-well luminometer, and was expressed as either picograms of luciferase activity per well or as picograms of luciferase activity per microgram of protein, as provided below, using TN-16 as the test compound.

COc1cc2c(c(OC)c1OC)-c1ccc(OC)c(=O)cc1C(NC(C)=O)CC2 (stereo not drawn) [Colchicine, N-(5,6,7,9-Tetrahydro-1,2,3,10-tetra-methoxy-9-oxobenzo[a]heptalen-7-yl) acetamide]
New Bone Width ([1]; 0.1 mg/kg/d): 0.225 ± 0.013 mm
New Bone Width ([1]; 1.0 mg/kg/d): 0.305 ± 0.020 mm

COC(=O)Nc1nc2cc(C(=O)c3cccs3)ccc2[nH]1 [Nocodazole, Methyl-[5-(2-thienylcarbonyl)-1 H-benzimidazole-2-yl]-carbamate]
New Bone Width ([1]; 1.5 mg/kg/d): 0.231 ± 0.027 mm

CCC(C)C(NC(=O)OCc1ccccc1)C(=O)NC(CCC(=O)OC(C)(C)C)C(=O)NC(C)C(=O)NC(C=O)CC(C)C (stereo not drawn) [Ps-1] (Cbz-IE(OtBu)AL-aldehyde; configuration not given here)
Bone Formation Rate: BFR/BS ([2]; 1 mg/kg/d, x5, mean ± SE): 1.766 ± 0.425* μm^3/μm^2/day
Bone Volume (%, BV/TV) ([2]; 1 mg/kg/d, x5, mean ± SE): 27.13 ± 1.51 %

CC(Nc1ccccc1)=C1C(=O)NC(Cc2ccccc2)C1=O (stereo not drawn) [TN-16, 3-(1-Anilinoethylidene)-5-benzylpyrrolidine-2,4-dione]
Bone Formation Rate: BFR/BS ([2]; 2 mg/kg/d, x2, mean ± SE): 0.815 ± 0.129* μm^3/μm^2/day
Bone Volume (%, BV/TV) ([2]; 2 mg/kg/d, x2, mean ± SE): 23.42 ± 3.13 %
Bone Formation Rate: BFR/BS ([2]; 4 mg/kg/d, x2, mean ± SE): 1.130 ± 0.293* μm^3/μm^2/day
Bone Volume (%, BV/TV) ([2]; 4 mg/kg/d, x2, mean ± SE): 27.21 ± 2.14 %
Bone Formation Rate: BFR/BS ([2]; 8 mg/kg/d, x2, mean ± SE): 1.231 ± 0.181** μm^3/μm^2/day
Bone Volume (%, BV/TV) ([2]; 8 mg/kg/d, x2, mean ± SE): 25.44 ± 1.29 %
BMD ([3]; Calvariae (1-month-old mice), 4 mg/kg/d): 26.0 ± 0.7 mg/cm^2
BMD ([3]; Calvariae (1-month-old mice), 8 mg/kg/d): 31.3 ± 0.5 mg/cm^2
BMD ([3]; Femora (3-month-old mice), 2 mg/kg/d): 90.1 ± 2.2 mg/cm^2
BMD ([3]; Femora (3-month-old mice), 4 mg/kg/d): 100.9 ± 1.6 mg/cm^2
BMD ([3]; Femora (3-month-old mice), 8 mg/kg/d): 102.1 ± 1.5 mg/cm^2
BMD ([3]; Tibiae (3-month-old mice), 2 mg/kg/d): 78.0 ± 2.2 mg/cm^2
BMD ([3]; Tibiae (3-month-old mice), 4 mg/kg/d): 84.5 ± 1.0 mg/cm^2
BMD ([3]; Tibiae (3-month-old mice), 8 mg/kg/d): 85.5 ± 0.8 mg/cm^2
New Bone Width ([1]; 2 mg/kg/d): 0.120 ± 0.016 mm
New Bone Width ([1]; 4 mg/kg/d): 0.376 ± 0.029 mm
New Bone Width ([1]; 8 mg/kg/d): 0.525 ± 0.035 mm
Luciferase Activity (Fold Change) (BMP2 promoter-Luc) ([4]; TN-16 0.16 μM): 2.4 ± 0.40 Fold Change
Luciferase Activity (Fold Change) (BMP2 promoter-Luc) ([4]; TN-16 0.31 μM): 4.0 ± 0.09 Fold Change
Luciferase Activity (Fold Change) (BMP2 promoter-Luc) ([4]; TN-16 0.61 μM): 4.8 ± 0.50 Fold Change
Luciferase Activity (Fold Change) (BMP2 promoter-Luc) ([4]; TN-16 1.25 μM): 5.6 ± 0.12 Fold Change
Luciferase Activity (Fold Change) (BMP2 promoter-Luc) ([4]; TN-16 2.5 μM): 6.2 ± 0.30 Fold Change
